{
  "source": "patent US11771704B1",
  "about": "“Methods of using rho kinase inhibitors to treat alzheimer's disease” (priority 2020, dated 2023)",
  "origin": "cited, not measured here",
  "key": {"[1]": {"details": "in vivo, 1-hydroxy metabolite; cited from earlier work"}, "[2]": {"test_system": "animal model", "details": "in vivo; cited from earlier work"}, "[3]": {"molecular_target": "p38 mitogen-activated protein kinase (Homo sapiens, UniProt Q16539)", "sequence (Q16539 whole entry)": "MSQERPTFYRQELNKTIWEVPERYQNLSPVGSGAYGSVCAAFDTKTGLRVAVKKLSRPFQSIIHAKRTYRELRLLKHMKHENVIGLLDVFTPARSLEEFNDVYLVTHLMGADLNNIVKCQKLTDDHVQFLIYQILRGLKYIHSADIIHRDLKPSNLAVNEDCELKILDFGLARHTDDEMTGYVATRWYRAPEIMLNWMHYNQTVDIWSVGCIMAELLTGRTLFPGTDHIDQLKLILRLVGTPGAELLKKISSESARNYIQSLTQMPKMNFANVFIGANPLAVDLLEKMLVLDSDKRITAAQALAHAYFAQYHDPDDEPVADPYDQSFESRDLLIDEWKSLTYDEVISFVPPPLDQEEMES", "details": "cited from earlier work"}, "[4]": {"test_system": "APP/PS1 transgenic mice", "details": "5 and 10 mg/kg/day intraperitoneally (70, 140 mg HED); cited from earlier work"}, "[5]": {"test_system": "streptozotocin rats", "details": "5 and 10 mg/kg/day intraperitoneally (226 mg HED); cited from earlier work"}, "[6]": {"test_system": "triple transgenic mouse model (APP Swedish, MAPT P301L, and PSEN1 M146V)", "details": "10 mg/kg/day intraperitoneally (57 mg HED); cited from earlier work"}, "[7]": {"test_system": "triple transgenic mice", "details": "10 or 12 months of age, in water at 30 mg/kg and 100 mg/kg; cited from earlier work"}},
  "data": [
    {"smiles": "O=S(=O)(c1cccc2c(O)nccc12)N1CCCNCC1", "note": "[M3, hydroxyfasudil]", "values": [
      {"measurement": "half-life", "setting": "[1]", "value": "about 8 hours"}
    ]},
    {"smiles": "O=c1ncn2nc(Sc3ccc(F)cc3F)ccc2c1-c1c(Cl)cccc1Cl", "note": "[Neflamapimod]", "values": [
      {"measurement": "efficacy in an animal model", "setting": "[2]", "value": "showed efficacy"},
      {"measurement": "primary endpoint of improving episodic memory", "setting": "[3]; Phase 2", "value": "failed"},
      {"measurement": "tau in the cerebrospinal fluid", "setting": "[3]; Phase 2", "value": "reducing"},
      {"measurement": "Aβ deposition", "setting": "[3]; humans", "value": "no effect"}
    ]},
    {"smiles": "Cl.O=S(=O)(c1cccc2cnccc12)N1CCCNCC1", "note": "[fasudil, Hexahydro-1-(5-Isoquinolinesulfonyl)-1H-1,4-Diazepine Monohydrochloride Hemihydrate]", "values": [
      {"measurement": "latency distance and quadrant time in the Morris water maze", "setting": "[4]", "value": "improved"},
      {"measurement": "latency distance and quadrant time in the Morris water maze", "setting": "[5]", "value": "improved"},
      {"measurement": "β-amyloid plaques in vivo", "setting": "[6]", "value": "reduce"},
      {"measurement": "spatial memory", "setting": "[7]", "value": "did not observe improvements"}
    ]}
  ]
}
